Measured values taken from ChEMBL document CHEMBL5518228, “DNA Interaction and Cleavage Modes of Anthraquinone-Fused Enediynes: A Study on Tiancimycins, Yangpumicins, and Their Semisynthetic Analogues” (J Med Chem, 2024).
The source made the active and inactive calls. No cut-off for these calls is given here.

Assays:
Jurkat = assay: Cytotoxicity against human Jurkat cells incubated for 72 hrs by CCK-8 assay; assay type: functional, cell-based
A549 = assay: Cytotoxicity against human A549 cells incubated for 72 hrs by CCK-8 assay; assay type: functional, cell-based; details: A549, 72 h
Caco-2 = assay: Cytotoxicity against human Caco-2 cells incubated for 72 hrs by CCK-8 assay; assay type: functional, cell-based; details: Caco-2, 72 h
[1] = Cytotoxicity against human KPL-4 cells incubated for 72 hrs by CCK-8 assay; assay type: functional, cell-based; details: KPL4, 72 h
[2] = Cytotoxicity against human NCM460 cells incubated for 72 hrs by CCK-8 assay; assay type: toxicity, cell-based
[3] = Cytotoxicity against human HUVEC cells incubated for 72 hrs by CCK-8 assay; assay type: toxicity, cell-based
Supercoiled DNA [4] = assay: Induction of supercoiled pBR322 DNA (unknown origin) cleavage assessed as relaxation of supercoiled plasmid incubated for 1 hr in presence of DTT by SYBR I Green staining based agarose gel electrophoresis analysis; assay type: nucleic-acid assay
Supercoiled DNA [5] = assay: Induction of supercoiled pBR322 DNA (unknown origin) cleavage at 5 uM incubated for 1 hr under pH 5.5 to 9.5 condition by agarose gel electrophoresis analysis; assay type: nucleic-acid assay
Supercoiled DNA [6] = assay: Induction of supercoiled pBR322 DNA (unknown origin) cleavage at 5 uM incubated for 1 hr in presence of catalase under pH 7.4 condition by agarose gel electrophoresis analysis; assay type: nucleic-acid assay
Supercoiled DNA [7] = assay: Induction of supercoiled pBR322 DNA (unknown origin) cleavage at 5 uM incubated for 1 hr in presence of pyridine under pH 7.4 condition by agarose gel electrophoresis analysis; assay type: nucleic-acid assay
Supercoiled DNA [8] = assay: Induction of supercoiled pBR322 DNA (unknown origin) cleavage at 5 uM incubated for 1 hr in presence of methanol under pH 7.4 condition by agarose gel electrophoresis analysis; assay type: nucleic-acid assay
Supercoiled DNA [9] = assay: Induction of supercoiled pBR322 DNA (unknown origin) cleavage at 5 uM incubated for 1 hr in presence of ethanol under pH 7.4 condition by agarose gel electrophoresis analysis; assay type: nucleic-acid assay
Supercoiled DNA [10] = assay: Induction of supercoiled pBR322 DNA (unknown origin) cleavage at 5 uM incubated for 1 hr in presence of mannitol under pH 7.4 condition by agarose gel electrophoresis analysis; assay type: nucleic-acid assay
DNA [11] = assay: Induction of duplex DNA (unknown origin) cleavage assessed as DNA cleaved fragments at AT-rich region at 1 mM incubated for 6 hr in presence of DTT by agarose gel electrophoresis analysis; assay type: nucleic-acid assay
Calf thymus DNA [12] = assay: Binding affinity to calf thymus DNA assessed as change in gibbs free energy in presence of ethidium bromide by competitive binding based fluorescence spectroscopic analysis; assay type: nucleic-acid assay; details: Bos taurus
Supercoiled DNA [13] = assay: Induction of supercoiled pBR322 DNA (unknown origin) cleavage at 100 nM incubated for 1 hr in presence of NADPH by agarose gel electrophoresis analysis; assay type: nucleic-acid assay
Supercoiled DNA [14] = assay: Induction of supercoiled pBR322 DNA (unknown origin) cleavage at 100 nM incubated for 1 hr in presence of DTT by agarose gel electrophoresis analysis; assay type: nucleic-acid assay
Supercoiled DNA [15] = assay: Induction of supercoiled pBR322 DNA (unknown origin) cleavage at 100 nM incubated for 1 hr in presence of GSH by agarose gel electrophoresis analysis; assay type: nucleic-acid assay
DNA [16] = assay: Induction of duplex DNA (unknown origin) cleavage assessed as DNA cleaved fragments at AT-rich region at 100 uM incubated for 6 hr in presence of DTT by agarose gel electrophoresis analysis; assay type: nucleic-acid assay
[17] = Toxicity in BALB/c mouse xenografted with human KPL-4 cells assessed as body weight loss at 0.05 mg/kg,iv administrated once per week for 2 weeks; assay type: organism-based; details: in vivo, 336 h
Supercoiled DNA [18] = assay: Induction of supercoiled pBR322 DNA (unknown origin) cleavage at 0.5 uM incubated for 1 hr under pH 5.5 to 9.5 condition by agarose gel electrophoresis analysis; assay type: nucleic-acid assay
Supercoiled DNA [19] = assay: Induction of supercoiled pBR322 DNA (unknown origin) cleavage at 0.5 uM incubated for 1 hr in presence of pyridine under pH 7.4 condition by agarose gel electrophoresis analysis; assay type: nucleic-acid assay
Supercoiled DNA [20] = assay: Induction of supercoiled pBR322 DNA (unknown origin) cleavage at 0.5 uM incubated for 1 hr in presence of catalase under pH 7.4 condition by agarose gel electrophoresis analysis; assay type: nucleic-acid assay
Supercoiled DNA [21] = assay: Induction of supercoiled pBR322 DNA (unknown origin) cleavage at 0.5 uM incubated for 1 hr in presence of methanol under pH 7.4 condition by agarose gel electrophoresis analysis; assay type: nucleic-acid assay
Supercoiled DNA [22] = assay: Induction of supercoiled pBR322 DNA (unknown origin) cleavage at 0.5 uM incubated for 1 hr in presence of ethanol under pH 7.4 condition by agarose gel electrophoresis analysis; assay type: nucleic-acid assay
Supercoiled DNA [23] = assay: Induction of supercoiled pBR322 DNA (unknown origin) cleavage at 0.5 uM incubated for 1 hr in presence of mannitol under pH 7.4 condition by agarose gel electrophoresis analysis; assay type: nucleic-acid assay
Supercoiled DNA [24] = assay: Induction of supercoiled pBR322 DNA (unknown origin) cleavage at 100 nM incubated for 1 hr in presence of adriamycin by agarose gel electrophoresis analysis; assay type: nucleic-acid assay
Supercoiled DNA [25] = assay: Induction of supercoiled pBR322 DNA (unknown origin) cleavage at 100 nM incubated for 1 hr in presence of actinomycin D by agarose gel electrophoresis analysis; assay type: nucleic-acid assay
Supercoiled DNA [26] = assay: Induction of supercoiled pBR322 DNA (unknown origin) cleavage at 100 nM incubated for 1 hr in presence of 10 uM of adriamycin by agarose gel electrophoresis analysis; assay type: nucleic-acid assay
Supercoiled DNA [27] = assay: Induction of supercoiled pBR322 DNA (unknown origin) cleavage at 100 nM incubated for 1 hr in presence of 10 uM of actinomycin D by agarose gel electrophoresis analysis; assay type: nucleic-acid assay
Supercoiled DNA [28] = assay: Induction of supercoiled pBR322 DNA (unknown origin) cleavage at 100 nM incubated for 1 hr in presence of bleomycin by agarose gel electrophoresis analysis; assay type: nucleic-acid assay
Supercoiled DNA [29] = assay: Induction of supercoiled pBR322 DNA (unknown origin) cleavage at 100 nM incubated for 1 hr in presence of bleomycin and ferrous ion by agarose gel electrophoresis analysis; assay type: nucleic-acid assay
Calf thymus DNA [30] = assay: Binding affinity to calf thymus DNA assessed as DNA insertion by measuring change in gibbs free energy by fluorescence spectroscopic analysis; assay type: nucleic-acid assay; details: Bos taurus
Calf thymus DNA [31] = assay: Binding affinity to calf thymus DNA assessed as DNA insertion by measuring change in gibbs free energy in presence of triggered form of compound by fluorescence spectroscopic analysis; assay type: nucleic-acid assay; details: Bos taurus
DNA [32] = assay: Induction of duplex DNA (unknown origin) cleavage assessed as DNA cleaved fragments at GC-rich region at 17.5 uM incubated for 1 hr in presence of FeSO4.7H2O by agarose gel electrophoresis analysis; assay type: nucleic-acid assay

Row | Molecule | IC50 (Jurkat) | IC50 (A549) | IC50 (Caco-2) | IC50 [1] | IC50 at 72 h [2] | IC50 at 72 h [3] | EC50 (Supercoiled DNA [4]) | deltaG (Calf thymus DNA [12]) | Activity (DNA [16]) | also measured
1 | COc1ccc2c(c1O)C(=O)c1c3c(cc(O)c1C2=O)[C@@]12O[C@@]1([C@](C)(O)[C@H](O)C(=O)O)[C@H](C#C/C=C\C#C[C@H]2O)N3 | 1 nM | 10.1 nM | 158 nM | 0.24 nM | 0.6 nM | 6.8 nM | 760 nM | -8.48 kcal/mol | – | Activity (Supercoiled DNA [5]): Active; Activity (Supercoiled DNA [6]): Active; Activity (Supercoiled DNA [7]): Active; Activity (Supercoiled DNA [8]): Active; Activity (Supercoiled DNA [9]): Active; Activity (Supercoiled DNA [10]): Active; Activity (DNA [11]): inactive
2 | O=C1c2ccccc2C(=O)c2c3c(cc(O)c21)[C@@]12O[C@@]1([C@H](O)CO)[C@H](C#C/C=C\C#C[C@H]2O)N3 | 0.01 nM | 0.2 nM | 5.4 nM | 0.004 nM | 0.1 nM | 0.3 nM | 83.3 nM | -8.31 kcal/mol | Active | Activity (Supercoiled DNA [13]): inactive; Activity (Supercoiled DNA [14]): Active; Activity (Supercoiled DNA [15]): Active
3 | C[C@@H](O)C12O[C@]13c1cc(O)c4c(c1N[C@H]2C#C/C=C\C#C[C@H]3O)C(=O)c1c(O)cccc1C4=O (some centres not stated) | 0.009 nM | 0.06 nM | 1.4 nM | 0.006 nM | 0.07 nM | 0.2 nM | 75.5 nM | -8.31 kcal/mol | Active | –
4 | COc1ccc2c(c1O)C(=O)c1c3c(cc(O)c1C2=O)[C@@]12O[C@@]1([C@@H](C)O)[C@H](C#C/C=C\C#C[C@H]2O)N3 | 0.05 nM | 0.04 nM | 0.4 nM | 0.02 nM | 0.2 nM | 0.2 nM | 38.9 nM | -8.26 kcal/mol | Active | Activity [17]: Toxic; Activity (Supercoiled DNA [13]): inactive; Activity (Supercoiled DNA [14]): Active; Activity (Supercoiled DNA [18]): Active; Activity (Supercoiled DNA [19]): Active; Activity (Supercoiled DNA [20]): Active; Activity (Supercoiled DNA [21]): Active; Activity (Supercoiled DNA [22]): Active; Activity (Supercoiled DNA [23]): Active; Activity (Supercoiled DNA [24]): inactive; Activity (Supercoiled DNA [25]): inactive; Activity (Supercoiled DNA [26]): inactive; Activity (Supercoiled DNA [27]): inactive; Activity (Supercoiled DNA [28]): Active; Activity (Supercoiled DNA [29]): Active; deltaG (Calf thymus DNA [30]): -20.5 kcal/mol; deltaG (Calf thymus DNA [31]): -17.8 kcal/mol
5 | COC1=C(C(=O)O)[C@H](C)[C@@]23O[C@]24c2cc(O)c5c(c2N[C@H]3C#C/C=C\C#CC14)C(=O)c1ccccc1C5=O | – | – | – | – | – | – | – | -3.79 kcal/mol | – | –
6 | COc1ccc2c(c1OC)C(=O)c1c3c(cc(OC)c1C2=O)[C@@]12O[C@@]1([C@@H](C)O)[C@H](C#C/C=C\C#C[C@H]2O)N3 | 117 nM | 787 nM | 635 nM | 32.8 nM | 382 nM | 525 nM | > 1000 nM | – | – | Activity (DNA [11]): inactive
7 | BLEOMYCIN | – | – | – | – | – | – | – | – | – | Activity (DNA [32]): Active
